According to ChEMBL document CHEMBL1909046, “DrugMatrix in vitro pharmacology data”:

Key:
[1] = biological target: T1, Cysteinyl leukotriene receptor 1 (Homo sapiens, UniProt Q9Y271); format: cell membranes, CHO-K1, Membrane; details: cho-k1; note: in other assays of this panel Not Active means under 50% inhibition at 10 µM
T1 sequence (Q9Y271 whole entry): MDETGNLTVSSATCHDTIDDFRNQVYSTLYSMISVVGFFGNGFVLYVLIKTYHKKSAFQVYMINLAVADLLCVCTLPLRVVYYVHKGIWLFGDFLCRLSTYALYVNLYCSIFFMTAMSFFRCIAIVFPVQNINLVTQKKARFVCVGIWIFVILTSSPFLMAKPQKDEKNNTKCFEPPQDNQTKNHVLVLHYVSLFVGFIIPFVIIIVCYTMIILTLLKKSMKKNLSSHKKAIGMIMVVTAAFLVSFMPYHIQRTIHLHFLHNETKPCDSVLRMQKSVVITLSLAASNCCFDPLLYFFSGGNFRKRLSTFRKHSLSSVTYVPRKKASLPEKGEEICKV

Neutrophil elastase = biological target: T2, Neutrophil elastase (Homo sapiens, UniProt P08246); format: tissue-based;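 note: inhibition of neutrophil elastase enzyme activity, measured with a p-nitroanilide-linked peptide substrate; in other assays of this panel Not Active means under 50% inhibition at 10 µM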
T2 sequence (P08246 whole entry): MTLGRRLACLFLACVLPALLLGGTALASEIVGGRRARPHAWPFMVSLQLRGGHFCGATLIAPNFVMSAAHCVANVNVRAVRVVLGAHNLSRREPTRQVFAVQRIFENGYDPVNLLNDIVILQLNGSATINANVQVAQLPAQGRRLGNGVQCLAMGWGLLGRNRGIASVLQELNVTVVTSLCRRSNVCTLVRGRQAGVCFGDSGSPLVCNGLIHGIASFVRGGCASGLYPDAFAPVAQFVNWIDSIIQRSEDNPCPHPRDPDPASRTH

[2] = biological target: 5-hydroxytryptamine receptor 1B (Rattus norvegicus, UniProt P28564); format: cell membranes, Wistar, Cerebral cortex, Membrane; note: in other assays of this panel Not Active means under 50% inhibition at 10 µM
Cytochrome P450 2C19 = Cytochrome P450 2C19 (Homo sapiens, UniProt P33261); details: bti-tn-5b1-4; note: in other assays of this panel Not Active means under 50% inhibition at 10 µM
[3] = biological target: Prostaglandin G/H synthase 1 (Homo sapiens, UniProt P23219); experiment: biochemical; format: tissue-based, Platelet; details: platelet
[4] = biological target: Voltage-gated inwardly rectifying potassium channel KCNH2 (Homo sapiens, UniProt Q12809); details: hek293; note: in other assays of this panel Not Active means under 50% inhibition at 10 µM
[5] = biological target: Mitogen-activated protein kinase 3 (Homo sapiens, UniProt P27361); experiment: DRUGMATRIX: Protein Serine/Threonine Kinase, ERK1 enzyme inhibition (substrate: Myelin Basic Protein); design: species or system Escherichia coli; details: Not Active = under 50% inhibition at 10 µM
Sequence of Mitogen-activated protein kinase 3 (P27361 whole entry): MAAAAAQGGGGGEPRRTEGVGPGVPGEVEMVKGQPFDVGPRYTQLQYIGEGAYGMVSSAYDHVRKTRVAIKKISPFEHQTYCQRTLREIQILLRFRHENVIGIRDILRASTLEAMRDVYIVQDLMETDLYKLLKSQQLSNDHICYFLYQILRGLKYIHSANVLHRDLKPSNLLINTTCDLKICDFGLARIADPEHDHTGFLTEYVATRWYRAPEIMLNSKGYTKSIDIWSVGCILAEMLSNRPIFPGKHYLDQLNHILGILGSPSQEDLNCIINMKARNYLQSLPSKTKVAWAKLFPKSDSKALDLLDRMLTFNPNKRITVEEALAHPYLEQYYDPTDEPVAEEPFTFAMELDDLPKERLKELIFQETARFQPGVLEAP

Sequence of 5-hydroxytryptamine receptor 1B (P28564 whole entry): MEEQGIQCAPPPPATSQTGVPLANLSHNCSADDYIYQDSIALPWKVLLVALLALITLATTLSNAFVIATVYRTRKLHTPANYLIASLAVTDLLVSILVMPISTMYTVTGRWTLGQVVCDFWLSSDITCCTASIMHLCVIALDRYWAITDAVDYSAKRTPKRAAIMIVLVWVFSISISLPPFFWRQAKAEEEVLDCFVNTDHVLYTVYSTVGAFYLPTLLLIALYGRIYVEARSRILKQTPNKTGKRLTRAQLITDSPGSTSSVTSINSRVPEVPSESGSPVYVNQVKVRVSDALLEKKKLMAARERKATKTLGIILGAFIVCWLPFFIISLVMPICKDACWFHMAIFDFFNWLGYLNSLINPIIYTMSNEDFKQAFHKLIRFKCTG
Sequence of Voltage-gated inwardly rectifying potassium channel KCNH2 (Q12809 whole entry): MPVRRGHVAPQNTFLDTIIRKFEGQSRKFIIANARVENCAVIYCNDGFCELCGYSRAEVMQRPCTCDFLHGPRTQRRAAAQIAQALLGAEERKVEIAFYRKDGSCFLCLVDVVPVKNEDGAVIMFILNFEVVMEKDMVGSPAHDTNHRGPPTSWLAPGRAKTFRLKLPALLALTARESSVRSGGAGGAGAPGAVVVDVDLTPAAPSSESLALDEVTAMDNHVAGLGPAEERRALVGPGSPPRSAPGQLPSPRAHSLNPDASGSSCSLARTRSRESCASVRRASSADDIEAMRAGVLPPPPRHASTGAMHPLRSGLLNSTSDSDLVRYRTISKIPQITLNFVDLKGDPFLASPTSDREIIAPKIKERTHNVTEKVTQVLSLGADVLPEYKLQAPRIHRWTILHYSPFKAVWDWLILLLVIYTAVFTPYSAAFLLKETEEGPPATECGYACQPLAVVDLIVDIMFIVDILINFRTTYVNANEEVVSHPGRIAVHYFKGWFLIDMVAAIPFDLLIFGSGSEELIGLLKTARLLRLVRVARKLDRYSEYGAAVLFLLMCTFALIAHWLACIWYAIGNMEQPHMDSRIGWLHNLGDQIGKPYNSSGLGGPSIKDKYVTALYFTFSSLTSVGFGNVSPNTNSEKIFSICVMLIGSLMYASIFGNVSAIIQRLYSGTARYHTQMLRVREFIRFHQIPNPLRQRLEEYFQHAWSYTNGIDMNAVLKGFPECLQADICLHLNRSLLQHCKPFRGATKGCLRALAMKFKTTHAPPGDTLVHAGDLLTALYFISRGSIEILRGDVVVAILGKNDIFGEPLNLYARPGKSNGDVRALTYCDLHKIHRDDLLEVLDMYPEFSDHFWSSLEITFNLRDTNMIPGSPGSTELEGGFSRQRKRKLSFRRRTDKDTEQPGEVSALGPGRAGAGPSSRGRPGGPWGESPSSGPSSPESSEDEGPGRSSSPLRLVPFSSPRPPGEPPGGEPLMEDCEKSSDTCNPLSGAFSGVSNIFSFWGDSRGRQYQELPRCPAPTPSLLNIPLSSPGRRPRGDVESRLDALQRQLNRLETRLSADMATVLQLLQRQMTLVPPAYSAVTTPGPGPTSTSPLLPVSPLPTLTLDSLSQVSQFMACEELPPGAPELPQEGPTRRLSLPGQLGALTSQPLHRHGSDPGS
Sequence of Prostaglandin G/H synthase 1 (P23219 whole entry): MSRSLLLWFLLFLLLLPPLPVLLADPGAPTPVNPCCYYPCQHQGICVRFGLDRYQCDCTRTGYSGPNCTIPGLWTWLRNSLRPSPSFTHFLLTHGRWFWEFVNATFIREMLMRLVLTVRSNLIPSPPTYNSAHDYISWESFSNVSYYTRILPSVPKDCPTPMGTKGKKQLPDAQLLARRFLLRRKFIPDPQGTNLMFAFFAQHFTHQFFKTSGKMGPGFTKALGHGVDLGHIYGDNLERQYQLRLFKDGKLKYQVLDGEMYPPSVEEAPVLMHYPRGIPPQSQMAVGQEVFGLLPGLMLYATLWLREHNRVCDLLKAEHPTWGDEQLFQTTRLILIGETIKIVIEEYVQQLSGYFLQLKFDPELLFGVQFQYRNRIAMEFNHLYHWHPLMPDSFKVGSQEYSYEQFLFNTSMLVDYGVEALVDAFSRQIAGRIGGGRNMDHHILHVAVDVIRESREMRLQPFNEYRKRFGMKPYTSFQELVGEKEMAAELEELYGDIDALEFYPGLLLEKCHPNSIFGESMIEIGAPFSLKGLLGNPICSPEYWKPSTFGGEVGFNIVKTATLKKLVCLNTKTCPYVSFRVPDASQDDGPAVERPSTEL
Sequence of Cytochrome P450 2C19 (P33261 whole entry): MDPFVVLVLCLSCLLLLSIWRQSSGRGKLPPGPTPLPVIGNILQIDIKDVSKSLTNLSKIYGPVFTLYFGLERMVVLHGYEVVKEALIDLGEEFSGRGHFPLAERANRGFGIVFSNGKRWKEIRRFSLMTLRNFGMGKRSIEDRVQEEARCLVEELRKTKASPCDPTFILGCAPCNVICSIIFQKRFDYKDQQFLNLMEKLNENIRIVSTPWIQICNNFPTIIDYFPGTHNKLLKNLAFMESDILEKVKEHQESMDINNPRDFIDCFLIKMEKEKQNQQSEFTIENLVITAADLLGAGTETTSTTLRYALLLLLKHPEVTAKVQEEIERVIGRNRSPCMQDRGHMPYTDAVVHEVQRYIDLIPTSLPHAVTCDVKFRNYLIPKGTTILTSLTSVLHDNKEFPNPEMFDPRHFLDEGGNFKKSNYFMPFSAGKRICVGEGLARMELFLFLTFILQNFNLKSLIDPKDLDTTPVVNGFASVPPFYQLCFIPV

NCCCCCC(=O)O [AMINOCAPROIC ACID]
Not Active: IC50 [1] | IC50 (Neutrophil elastase) | IC50 [2] | IC50 (Cytochrome P450 2C19) | Ki (Cytochrome P450 2C19) | IC50 [3] | IC50 [4] | Ki [4] | IC50 [5]

CCC1(c2ccc(N)cc2)CCC(=O)NC1=O (configuration not stated) [AMINOGLUTETHIMIDE]
Not Active: IC50 [1] | IC50 (Neutrophil elastase) | IC50 [2] | IC50 (Cytochrome P450 2C19) | Ki (Cytochrome P450 2C19) | IC50 [3] | IC50 [4] | Ki [4] | IC50 [5]

Cc1ccc(/N=C/N(C)/C=N/c2ccc(C)cc2C)c(C)c1 [AMITRAZ]
Not Active: IC50 [1] | IC50 (Neutrophil elastase) | IC50 [2] | IC50 (Cytochrome P450 2C19) | Ki (Cytochrome P450 2C19) | IC50 [3] | IC50 [4] | Ki [4] | IC50 [5]

COc1ccc(C[C@H]2NC[C@H](O)[C@H]2OC(C)=O)cc1 [ANISOMYCIN]
Not Active: IC50 [1] | Ki [1] | IC50 (Neutrophil elastase) | Ki (Neutrophil elastase) | IC50 [2] | Ki [2] | IC50 (Cytochrome P450 2C19) | Ki (Cytochrome P450 2C19) | IC50 [3] | Ki [3] | IC50 [4] | Ki [4] | IC50 [5] | Ki [5]

CN(C)C(=O)Oc1cc(OC(=O)N(C)C)cc(C(O)CNC(C)(C)C)c1 (configuration not stated) [BAMBUTEROL]
Not Active: IC50 [1] | IC50 (Neutrophil elastase) | IC50 [2] | IC50 (Cytochrome P450 2C19) | Ki (Cytochrome P450 2C19) | IC50 [3] | IC50 [4] | Ki [4] | IC50 [5]

c1ccc2c(c1)c1cccc3ccc4cccc2c4c31 [BENZO[E]PYRENE]
Not Active: IC50 [1] | IC50 (Neutrophil elastase) | IC50 [2] | IC50 (Cytochrome P450 2C19) | Ki (Cytochrome P450 2C19) | IC50 [3] | IC50 [4] | Ki [4] | IC50 [5]

CNCCc1ccccn1 [BETAHISTINE]
Not Active: IC50 [1] | IC50 (Neutrophil elastase) | IC50 [2] | IC50 (Cytochrome P450 2C19) | Ki (Cytochrome P450 2C19) | IC50 [3] | IC50 [4] | Ki [4] | IC50 [5]

CC(C)C(Br)C(=O)NC(N)=O (configuration not stated) [BROMISOVALUM]
Not Active: IC50 [1] | IC50 (Neutrophil elastase) | IC50 [2] | IC50 (Cytochrome P450 2C19) | Ki (Cytochrome P450 2C19) | IC50 [3] | IC50 [4] | Ki [4] | IC50 [5]

CCCC1O[C@@H]2C[C@H]3[C@@H]4CCC5=CC(=O)C=C[C@]5(C)[C@H]4[C@@H](O)C[C@]3(C)[C@]2(C(=O)CO)O1 (some centres not stated) [BUDESONIDE]
Not Active: IC50 [1] | IC50 (Neutrophil elastase) | IC50 [2] | IC50 (Cytochrome P450 2C19) | Ki (Cytochrome P450 2C19) | IC50 [3] | IC50 [4] | Ki [4] | IC50 [5]

CN(Cc1ccc(C(C)(C)C)cc1)Cc1cccc2ccccc12 [BUTENAFINE]
Not Active: IC50 [1] | IC50 (Neutrophil elastase) | IC50 [2] | IC50 (Cytochrome P450 2C19) | Ki (Cytochrome P450 2C19) | IC50 [3] | IC50 [4] | Ki [4] | IC50 [5]

C[C@H](CS)C(=O)N1CCC[C@H]1C(=O)O [CAPTOPRIL]
Not Active: IC50 [1] | IC50 (Neutrophil elastase) | IC50 [2] | IC50 (Cytochrome P450 2C19) | Ki (Cytochrome P450 2C19) | IC50 [3] | IC50 [4] | Ki [4] | IC50 [5]

O=C(O)CCCc1ccc(N(CCCl)CCCl)cc1 [CHLORAMBUCIL]
Not Active: IC50 [1] | IC50 (Neutrophil elastase) | IC50 [2] | IC50 (Cytochrome P450 2C19) | Ki (Cytochrome P450 2C19) | IC50 [3] | IC50 [4] | Ki [4] | IC50 [5]

Cc1cc(C2CCCCC2)n(O)c(=O)c1 [CICLOPIROX]
Not Active: IC50 [1] | IC50 (Neutrophil elastase) | IC50 [2] | IC50 (Cytochrome P450 2C19) | Ki (Cytochrome P450 2C19) | IC50 [3] | IC50 [4] | Ki [4] | IC50 [5]
